Each structure is given as a SMILES string. “Also recorded” adds a separate entry of the source. Like-named read-outs stand apart in the source and are kept apart here.

Data set [1] concerns the target T1, cyt c/TOCL complexes (Equus caballus, UniProt P00004).
T1 construct: purchased Sigma (St. Louis, Mo.)
Briefly: Peroxidase activity of cyt c/TOCL complexes, H2O2-induced oxidation of Amplex Red to resorufin. In kind it is biochemical. The note with it: for inhibition of cyt c peroxidase compared with TPP-ISA: ratio of compound to cyt c of 2.5:1, TOCL:cyt c 25:1; for inhibition of peroxidase activity of cyt c/TOCL complexes (Amplex Red oxidation): cyt c 1 μM, CL/cyt c 25:1, 50 μM Amplex Red, 50 μM H2O2, 20 min. The method, then: Conditions: cyt c (1 μM), H2O2 (50 μM), Amplex Red (50 μM). Experiments were performed in 20 mM HEPES buffer (pH 7.4) containing DTPA (100 μM), cyt c was incubated with DOPC/TOCL liposomes (1:1) at a ratio of TOCL:cyt c of 25:1.
(§1) Peroxidase activity of cyt c was assessed by oxidation of Amplex Red, etoposide or TLCL (tetra-linoleoyl-cardiolipin). Measurements of Amplex Red oxidation were performed using fluorescence of its oxidation product resorufin. Cyt c (1 μM) was incubated with tetra-oleoyl-cardiolipin (TOCL) containing liposomes (CL/cyt c ratio 25:1). Then 50 μM Amplex Red and 50 μM H2O2 were added, and the incubation proceeded for an additional 20 min. Fluorescence was detected by employing a “Fusion α” universal microplate analyzer and by using an excitation wavelength of 535 nm and an emission wavelength of 590 nm. EPR spectra of etoposide phenoxyl radicals were recorded at 25° C. in gas permeable Teflon tubings (inner diameter, 0.8 mm; thickness, 0.013; Alpha Wire Corp., Elizabeth, N.J.). Volume of samples was 60 μL. The spectra were recorded under the following conditions: 335.3 mT, center field; 2 mT, sweep width; 0.04 mT, field modulation; 10 mW, microwave power; 0.1 s, time constant; 2 min, time scan. The time course of the etoposide radical EPR signal was obtained by repeated scanning of the field (0.15 mT, sweep width; 335.3 mT, center field) corresponding to a part of the EPR signal. Peroxidase activity of mitochondria was determined by the formation of resorufin from Amplex Red. Isolated mouse liver mitochondria (0.6 mg/ml) were incubated in the presence of 100 μM Amplex Red and 2 mM tert-butyl hydroperoxide (tBOOH). After incubation at room temperature for 20 min, fluorescence of resurufin was measured.
Small unilamellar liposomes were prepared from dioleoylphosphatidylcholine (DOPC) and TOCL (1:1 ratio) or DOPC and TLCL (4:1 ratio) by sonication in HEPES buffer (20 mM with 100 μM diethylene triamine pentaacetic acid (DTPA) (pH 7.4) 3×60 sec, relaxation time 2 min, 4° C.).
(§2) Peroxidase activity of cyt c was assessed by oxidation of Amplex Red, etoposide or TLCL as described above.

Data set [2] has as its target T1, cyt c/TOCL complexes. Kind of data set: Low-temperature (77 K) EPR of protein-immobilized (tyrosyl) radicals of cyt c/TOCL with H2O2. In kind it is biochemical. The note with it: cyt c 100 μM, H2O2 500 μM, EPR at 77 K. How it is done: EPR spectra of protein-immobilized (tyrosyl) radicals were recorded after the addition of H2O2 (500 μM) to cyt c (100 μM) incubated with tetra-oleoyl-cardiolipin (TOOL) liposomes at room temperature. After incubation for 20 s, the reaction was stopped by freezing the samples in liquid nitrogen. EPR spectra were obtained on a JEOL-REIX spectrometer with 100 kHz modulation (JEOL, Kyoto, Japan). EPR spectra from frozen samples were recorded at 77 K under the following conditions: center field, 3230 G; sweep width, 100 G; field modulation, 5 G; microwave power, 1 mW; receiver gain, 10^3; time constant, 0.1 s; time scan, 4 min.

Data set [3] addresses T1, cyt c/TOCL complexes. Briefly: Haem-nitrosylation of cyt c/TOCL by nitroxyl from Angeli's salt, EPR at 77 K. To be noted: Angeli's salt 500 μM, 30 min. In kind it is biochemical. How it is done: Heme nitrosylation: Cyt c (100 μM) was incubated with a nitroxyl donor, Angeli's salt (500 μM), for 30 min at room temperature. The reaction was stopped by freezing the samples in liquid nitrogen. The EPR spectra of heme-nitrosylated cyt c were measured at 77 K under the following instrumental settings: center field, 3200 G; scan range, 500 G; field modulation, 5 G; microwave power, 10 mW; time constant, 0.1 s; scan time, 4 min; receiver gain, 10^3.

For data set [4], the target named is T1, cyt c/TOCL complexes. Kind of data set: Peroxidase activity of cyt c/TOCL complexes, H2O2-induced oxidation of etoposide (EPR of phenoxyl radicals). In kind it is biochemical. The note with it: H2O2-driven oxidation of etoposide. The method, then:
as §1, §2

Another data set deals with mouse liver mitochondria. Kind of data set: Peroxidase activity of isolated mouse liver mitochondria (Amplex Red, tBOOH). To be noted: 0.6 mg/ml mitochondria, 100 μM Amplex Red, 2 mM tBOOH, 20 min. It counts as biochemical. How it is done: Peroxidase activity of cyt c was assessed by oxidation of Amplex Red, etoposide or TLCL (tetra-linoleoyl-cardiolipin). Measurements of Amplex Red oxidation were performed using fluorescence of its oxidation product resorufin. Cyt c (1 μM) was incubated with tetra-oleoyl-cardiolipin (TOCL) containing liposomes (CL/cyt c ratio 25:1). Then 50 μM Amplex Red and 50 μM H2O2 were added, and the incubation proceeded for an additional 20 min. Fluorescence was detected by employing a “Fusion α” universal microplate analyzer and by using an excitation wavelength of 535 nm and an emission wavelength of 590 nm. EPR spectra of etoposide phenoxyl radicals were recorded at 25° C. in gas permeable Teflon tubings (inner diameter, 0.8 mm; thickness, 0.013; Alpha Wire Corp., Elizabeth, N.J.). Volume of samples was 60 μL. The spectra were recorded under the following conditions: 335.3 mT, center field; 2 mT, sweep width; 0.04 mT, field modulation; 10 mW, microwave power; 0.1 s, time constant; 2 min, time scan. […] Peroxidase activity of mitochondria was determined by the formation of resorufin from Amplex Red. […] After incubation at room temperature for 20 min, fluorescence of resurufin was measured.
Finally, the ability of ISA and IEOA to inhibit peroxidase activity using isolated mouse liver mitochondria was assessed. […]

In a further data set the test system is mouse embryonic cells. Kind of data set: Actinomycin D-induced cell death in mouse embryonic cells (Annexin V/PI). To be noted: 1 to 100 μM (BSA complexes), 100 ng ml^−1 ActD, 18 h. It counts as cell-based. How it is done: IEOA or ISA were incubated in the presence of fatty acid-free bovine serum albumin (BSA) (Sigma) at a molar ratio of 5:1 at 37° C. for 30 min. Mouse embryonic cells were incubated with IEOA/BSA or ISA/BSA (100 μM) complexes for 30 min before the addition of 100 ng ml^−1 actinomycin D (ActD). After 18-h incubation with ActD, cell viability was analysed by flow cytometry using an Annexin V/PI kit. ActD-induced cell death in ˜34.2% of cells. […] Representative data with 100 μM IEOA/BSA and ISA/BSA complexes are shown. Data are means±s.d., n=3.

For another data set, the target named is T2, native ferri-cyt c (Equus caballus, UniProt P00004).
T2 construct: purchased Sigma (St. Louis, Mo.)
Kind of data set: Liquid-He (20 K) X-band EPR of haem-iron ligation, native cyt c. To be noted: pH 7.4, 20 K, no TOCL. It counts as binding. The method, then: (§3) Conditions: native cyt c (300 μM), IEOA/cyt c (2:1), TOCL/IEOA/cyt c (20:2:1), 20 mM HEPES buffer, pH 7.4. Samples (200 μl) were placed in 3 mm o.d. suprasil quartz EPR tubes and frozen in liquid nitrogen for subsequent spectroscopic measurements. X-band (9 GHz) EPR spectra were recorded on a Bruker ESP 300 spectrometer equipped with an Oxford Instruments ESR 910 flow cryostat for ultra-low-temperature measurements. Spectra were recorded at 9.8 G modulation amplitude and 200 μW microwave power. The microwave frequency was calibrated by a frequency counter and the magnetic field was calibrated with a gaussmeter. The temperature was calibrated with carbon-glass resistors (CGR-1-1000) from LakeShore. This instrument and the software (SpinCount) to analyse the EPR spectra were provided by Professor Mike Hendrich, Carnegie Mellon University.

For a further data set, the target named is T3, cyt c/TOCL complex (Equus caballus, UniProt P00004).
T3 construct: purchased Sigma (St. Louis, Mo.)
Briefly: Liquid-He (20 K) X-band EPR of haem-iron ligation, cyt c/TOCL complex. In kind it is binding. How it is done: as §3

Data set [5] in a line: TPP-IOA levels in plasma, small intestine and bone marrow after i.p. injection (LC-MS/MS, SRM). In kind it is in vivo. The note with it: C57BL/6NTac, mouse, ip, 10 min after i.p. injection, 5 mg/kg body weight. The method, then:
TPP-IOA and its hydrolysis products were extracted from plasma, small intestine and bone marrow tissue 10 min after TPP-IOA i.p. injection into animals (5 mg/kg body weight), using a standard Folch procedure for extraction of lipids^37. In one set of runs, intact TPP-IOA was assessed by SRM as described below. In an identical set of duplicate runs, hydrolyzed TPP-IOA (in the form of the TPP moiety, see below) was assessed by a different mass spectrometric method, MRM, as described below.
TPP-IOA (m/z 651) was assessed by SRM in a LCQ-Duo ion trap mass spectrometer (Thermo, Inc., Waltham, Mass.). Chromatography was performed on an Eclipse XDB reverse phase C18 column (4.6 mm×15 cm, Agilent Technologies, Santa Clara, Calif.) using an isocratic solvent system consisting of acetonitrile:water:triethylamine:acetic acid (450:50:2.5:2.5, v/v/v/v) and a flow rate of 0.4 ml/min. The transition measured was 651>303 (TPP-IOA to TPP-propyl moiety—water) within a 0.5 Da window. Instrument conditions were as follows: spray voltage, 4.5 kV, positive mode; sheath gas, 30; capillary temperature, 250° C.; tube lens, 20; capillary voltage, 26. The instrument was tuned for the appropriate parent ion and all parameters were optimized to maximize the transition during the SRM including tuning under appropriate flow conditions.

T1 sequence (P00004 2-105 limits assumed, one chain of several): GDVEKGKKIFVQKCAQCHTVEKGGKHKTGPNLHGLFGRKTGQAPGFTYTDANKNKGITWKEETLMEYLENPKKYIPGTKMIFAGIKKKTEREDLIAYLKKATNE
T2 sequence (P00004 2-105 limits assumed): as the sequence (P00004 2-105 limits assumed, one chain of several) above
T3 sequence (P00004 2-105 limits assumed, one chain of several): as above

On to `CCCCCCCCCCCCC(CCCCC(=O)OCCC[P+](c1ccccc1)(c1ccccc1)c1ccccc1)n1ccnc1.[Br-]` (racemic) [TPP-6-imidazole-stearic acid, (3-((6-(1H-imidazol-1-yl)octadecanoyl)oxy)propyl)triphenylphosphonium bromide], for which, at cyt c/TOCL complexes [1], the “inhibition of cyt c peroxidase compared with TPP-ISA” value is “significantly better inhibitors of cyt c peroxidase than TPP-ISA”.

Regarding `CCCCCCCCCCC(CCCCCCC(=O)OCCC[P+](c1ccccc1)(c1ccccc1)c1ccccc1)n1ccnc1.[Br-]` (racemic) [TPP-8-imidazole-stearic acid, (3-((8-(1H-imidazol-1-yl)octadecanoyl)oxy)propyl)triphenylphosphonium bromide], the “inhibition of cyt c peroxidase compared with TPP-ISA” value at cyt c/TOCL complexes [1] is reported as “significantly better inhibitors of cyt c peroxidase than TPP-ISA”.

Take `CCCCCCC(C/C=C/CCCCCCCC(=O)O)n1ccnc1` (stereo not drawn) [IEOA, (E)-12-(1H-imidazol-1-ium-1-yl)octadec-9-enoic acid]: on cyt c/TOCL complexes [2], the “H2O2-dependent generation of protein-immobilized (tyrosyl) radicals” value is listed as “effectively quenched generation of Tyr. radicals”. Also, the “EPR signal of haem-nitrosylated cyt c/TOCL” value on cyt c/TOCL complexes [3] is on record as “concentration-dependent decrease of the EPR signal”. Besides, the “inhibition of peroxidase activity of cyt c/TOCL complexes (etoposide oxidation, EPR)” value (“inhibition … (etoposide oxidation, EPR)” below) against cyt c/TOCL complexes [4] was “potent inhibitors”. Besides, the “peroxidase activity of isolated mouse liver mitochondria” value with mouse liver mitochondria is recorded as “suppressed peroxidase activity in a concentration-dependent manner”. Moreover, the “protection against ActD-induced cell death” value with mouse embryonic cells is given as “exerted no protection against apoptosis; also recorded: no detectable protection”. Moreover, at cyt c/TOCL complexes [1], the “inhibition of peroxidase activity of cyt c/TOCL complexes (Amplex Red oxidation)” value (“inhibition … (Amplex Red oxidation)” for short) is listed as “potent inhibitors”.

For `CCCCCCC(C/C=C\CCCCCCCC(=O)O)n1ccnc1` (stereo not drawn) [IOA, 12-(Imidazol-1-yl)-(Z)-9-octadecaenoate], the “H2O2-dependent generation of protein-immobilized (tyrosyl) radicals” value at cyt c/TOCL complexes [2] is “effectively quenched generation of Tyr. radicals”. For the same compound, at cyt c/TOCL complexes [4], the “inhibition … (etoposide oxidation, EPR)” value was “potent inhibitors”. The “EPR spectrum (axial haem coordination) of native ferri-cyt c on addition of compound” value at native ferri-cyt c is listed as “no change in the EPR spectrum”. Besides, the “inhibition … (Amplex Red oxidation)” value against cyt c/TOCL complexes [1] is recorded as “potent inhibitors”.

For the compound `CCCCCCC(CCCCCCCCCCC(=O)O)n1ccnc1` (stereo not drawn) [ISA, 12-(1H-imidazol-1-yl)octadecanoic acid], the “EPR signal of haem-nitrosylated cyt c/TOCL” value at cyt c/TOCL complexes [3] is “concentration-dependent decrease of the EPR signal”. In addition, the “inhibition … (etoposide oxidation, EPR)” value against cyt c/TOCL complexes [4] is reported as “potent inhibitors”. Besides, the “peroxidase activity of isolated mouse liver mitochondria” value in the data set with mouse liver mitochondria is on record as “suppressed peroxidase activity in a concentration-dependent manner”. For the same compound, the “protection against ActD-induced cell death” value in the data set with mouse embryonic cells is on record as “exerted no protection against apoptosis; also recorded: no detectable protection”. Also, on cyt c/TOCL complexes [1], the “inhibition … (Amplex Red oxidation)” value is “potent inhibitors”. For the same compound, the “change of haem-iron coordination in cyt c (Met80 substituted by imidazole moiety)” value on cyt c/TOCL complex was “able to change haem-iron coordination in cyt c”.

`CCCCCCC(C/C=C\CCCCCCCC(=O)OCCC[P+](c1ccccc1)(c1ccccc1)c1ccccc1)n1ccnc1.[Br-]` (stereo not drawn) [TPP-IOA, 9-(Z)-(3-(12-imidazol-1-yl)octadeca-9-enoyloxy)propyl)triphenylphosphonium bromide]: the concentration at 10 min is 0.2 ng/g in data set [5] (bone marrow, read-out: TPP-IOA level in bone marrow); 54 ng/mL in data set [5] (plasma, read-out: TPP-IOA level in plasma); 1.5 ng/g in data set [5] (small intestine, read-out: TPP-IOA level in small intestine).
